The assay addresses T1, human MER (Homo sapiens, UniProt Q12866).
T1 construct: purchased Invitrogen
T1 sequence (Q12866 21-999): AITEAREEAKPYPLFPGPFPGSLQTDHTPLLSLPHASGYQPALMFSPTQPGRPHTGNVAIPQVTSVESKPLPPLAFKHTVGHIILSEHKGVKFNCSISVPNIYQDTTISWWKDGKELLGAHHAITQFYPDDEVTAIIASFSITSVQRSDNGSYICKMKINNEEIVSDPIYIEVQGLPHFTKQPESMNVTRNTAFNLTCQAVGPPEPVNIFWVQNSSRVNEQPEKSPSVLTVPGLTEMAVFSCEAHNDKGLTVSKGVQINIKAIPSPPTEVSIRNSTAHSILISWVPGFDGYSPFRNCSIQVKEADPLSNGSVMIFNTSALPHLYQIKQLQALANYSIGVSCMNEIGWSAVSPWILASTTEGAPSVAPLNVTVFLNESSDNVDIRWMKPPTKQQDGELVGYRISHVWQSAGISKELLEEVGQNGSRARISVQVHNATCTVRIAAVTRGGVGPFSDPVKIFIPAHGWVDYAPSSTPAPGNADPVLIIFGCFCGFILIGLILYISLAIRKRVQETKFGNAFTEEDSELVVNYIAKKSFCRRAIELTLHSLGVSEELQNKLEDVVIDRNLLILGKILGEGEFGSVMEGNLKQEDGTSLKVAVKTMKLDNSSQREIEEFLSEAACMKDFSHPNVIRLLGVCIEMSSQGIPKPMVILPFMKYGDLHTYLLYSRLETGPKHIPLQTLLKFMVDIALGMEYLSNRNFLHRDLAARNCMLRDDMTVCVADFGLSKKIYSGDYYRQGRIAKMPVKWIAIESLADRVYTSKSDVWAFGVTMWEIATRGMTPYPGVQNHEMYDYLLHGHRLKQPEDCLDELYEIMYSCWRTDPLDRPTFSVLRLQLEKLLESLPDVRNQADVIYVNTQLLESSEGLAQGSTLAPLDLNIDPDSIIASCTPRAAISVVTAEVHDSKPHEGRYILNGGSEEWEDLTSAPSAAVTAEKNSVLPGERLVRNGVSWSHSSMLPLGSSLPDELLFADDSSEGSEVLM
The experiment in a line: HTRF KinEASE-TK biochemical potency assay, MER. The conditions noted are these: 1 nM MER, 700 μM ATP, 800 nM TK Substrate-biotin. A digest of the protocol:
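Final conditions: 5 nM AXL, 1 nM TYRO3 or MER, 50 mM HEPES pH 7.4, 10 mM MgCl2, 0.01% BSA, 1 mM DTT, 700 μM ATP. Reaction ran 2 h at RT after 1 h preincubation with compound; HTRF signal read at 665/620 nm.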
In general terms: Time-resolved FRET reads energy transfer from a long-lived donor to a nearby acceptor.
In general, IC50 refers to the concentration needed to halve the response being measured. Higher therefore signals lower potency. `Cc1cc(-c2n[nH]c3ncc(-c4ccc5c(c4)CC[C@@H](N4CCCC4)CC5)cc23)cc(F)c1C(N)=O` [Example 83, (S)-2-Fluoro-6-methyl-4-(5-(7-(pyrrolidin-1-yl)-6,7,8,9-tetrahydro-5H-benzo[7]annulen-2-yl)-1H-pyrazolo[3,4-b]pyridin-3-yl)benzamide] showed a 50% inhibitory concentration (IC50) below 0.1 µM.

In turn, `NC(=O)c1ccc(-c2n[nH]c3ncc(-c4ccc5c(c4)CC[C@@H](N4CCCC4)CC5)cc23)cc1Cl` [Example 84, (S)-2-Chloro-4-(5-(7-(pyrrolidin-1-yl)-6,7,8,9-tetrahydro-5H-benzo[7]annulen-2-yl)-1H-pyrazolo[3,4-b]pyridin-3-yl)benzamide] gave an IC50 below 0.1 µM. Consider `O=C(c1ccc(-c2n[nH]c3ncc(-c4ccc5c(c4)CC[C@@H](N4CCCC4)CC5)cc23)cc1Cl)N1CCC(O)CC1` [Example 85, (S)-(2-Chloro-4-(5-(7-(pyrrolidin-1-yl)-6,7,8,9-tetrahydro-5H-benzo[7]annulen-2-yl)-1H-pyrazolo[3,4-b]pyridin-3-yl)phenyl)(4-hydroxypiperidin-1-yl)methanone], for which the IC50 was 0.1 to 1 µM. `COc1cc(-c2n[nH]c3ncc(-c4ccc5c(c4)CCC(C)(N4CCC[C@H]4C)CC5)cc23)ccc1S(N)(=O)=O` (stereo partly drawn) [Example 87, 2-Methoxy-4-(5-(7-methyl-7-((R)-2-methylpyrrolidin-1-yl)-6,7,8,9-tetrahydro-5H-benzo[7]annulen-2-yl)-1H-pyrazolo[3,4-b]pyridin-3-yl)benzenesulfonamide] returned an IC50 of 0.1 to 1 µM. In turn, `C[C@@H]1CCCN1C1(C)CCc2ccc(-c3cnc4[nH]nc(-c5ccc(C(=O)NC6CCOCC6)cc5)c4c3)cc2CC1` (stereo partly drawn) [Example 88, 4-(5-(7-Methyl-7-((R)-2-methylpyrrolidin-1-yl)-6,7,8,9-tetrahydro-5H-benzo[7]annulen-2-yl)-1H-pyrazolo[3,4-b]pyridin-3-yl)-N-(tetrahydro-2H-pyran-4-yl)benzamide] registered an IC50 above 1 µM.

In the case of `COC1CCN(C(=O)c2ccc(-c3n[nH]c4ncc(-c5ccc6c(c5)CCC(C)(N5CCC[C@H]5C)CC6)cc34)cc2)CC1` (stereo partly drawn) [Example 89, (4-Methoxypiperidin-1-yl)(4-(5-(7-methyl-7-((R)-2-methylpyrrolidin-1-yl)-6,7,8,9-tetrahydro-5H-benzo[7]annulen-2-yl)-1H-pyrazolo[3,4-b]pyridin-3-yl)phenyl)methanone], the IC50 lay in the range of 0.1 to 1 µM. The compound `Cc1cc2c(cc1-c1cnc3[nH]nc(-c4ccc(C(C)(C)O)c(Cl)c4)c3c1)CCC(N1CCC[C@H]1C)CC2` (stereo partly drawn) [Example 90, 2-[2-Chloro-4-(5-{3-methyl-7-[(2R)-2-methylpyrrolidin-1-yl]-6,7,8,9-tetrahydro-5H-benzo[7]annulen-2-yl}-1H-pyrazolo[3,4-b]pyridin-3-yl)phenyl]propan-2-ol] came in with an IC50 above 1 µM.

`NS(=O)(=O)c1ccc(-c2n[nH]c3ncc(-c4ccc5c(c4)CC[C@@H](N4CCCC4)CC5)cc23)cc1Cl` [Example 91, (S)-2-Chloro-4-(5-(7-(pyrrolidin-1-yl)-6,7,8,9-tetrahydro-5H-benzo[7]annulen-2-yl)-1H-pyrazolo[3,4-b]pyridin-3-yl)benzenesulfonamide] registered an IC50 of 0.1 to 1 µM. As to `NS(=O)(=O)c1ccc(-c2n[nH]c3ncc(-c4ccc5c(c4)CCN(C4CCCC4)CC5)cc23)cc1Cl` [Example 92, 2-Chloro-4-(5-(3-cyclopentyl-2,3,4,5-tetrahydro-1H-benzo[d]azepin-7-yl)-1H-pyrazolo[3,4-b]pyridin-3-yl)benzenesulfonamide], the IC50 fell in the range of 0.1 to 1 µM. The same measure for `C[C@@H]1CCCN1C1(C)CCc2ccc(-c3cnc4[nH]nc(-c5ccc(S(N)(=O)=O)c(Cl)c5)c4c3)cc2CC1` (stereo partly drawn) [Example 93, 2-Chloro-4-(5-(7-methyl-7-((R)-2-methylpyrrolidin-1-yl)-6,7,8,9-tetrahydro-5H-benzo[7]annulen-2-yl)-1H-pyrazolo[3,4-b]pyridin-3-yl)benzenesulfonamide]: below 0.1 µM.

Source of the values: US20240246967A1, “AXL COMPOUNDS” (ARCUS BIOSCIENCES, INC., priority 2021, published 2024).
